Measured values from US12186283B2, “Bismuth-thiol compositions and methods of use” (Microbion Corporation, priority 2018, dated 2025).
Where two headings read alike, the source gives them in different places.

How the values were obtained:
Format in all cases: cell-based
[1] = system: Candida auris; experiment: Broth microdilution MIC, yeast (Example 13)
[2] = system: Aspergillus spp.; experiment: Broth microdilution MIC/MEC, mold (Example 13); conditions: for MIC0 (complete inhibition): comparators, read time not given
[3] = system: Candida glabrata; experiment: Broth microdilution MIC, yeast (Example 13)
[4] = system: Candida albicans; experiment: Broth microdilution MIC, yeast (Example 13); conditions: 24 hr
[5] = system: Candida krusei; experiment: Broth microdilution MIC, yeast (Example 13)
[6] = Candida glabrata ATCC 90030, Susceptible
[7] = Candida glabrata ATCC MYA-2950, Susceptible
[8] = Candida glabrata MMX 7087, Susceptible
[9] = Candida glabrata MMX 7111, Susceptible
[10] = Candida glabrata MMX 7549, Susceptible
[11] = Candida albicans ATCC 90028, Susceptible
[12] = Candida albicans MMX 7053, Susceptible
[13] = Candida albicans MMX 7403, Susceptible
[14] = Candida albicans MMX 7430, Susceptible
[15] = Candida albicans MMX 7437, FLU-I
[16] = C. krusei ATCC 14243, Susceptible
[17] = C. krusei ATCC 96685, Susceptible
[18] = C. krusei MMX 7125, Susceptible
[19] = C. krusei MMX 7128, Susceptible
[20] = C. krusei MMX 7141, Susceptible
[21] = C. krusei MMX 7155, Susceptible
[22] = C. krusei MMX 7563, Susceptible
[23] = C. krusei MMX 9878, MICA-I, VORI-I

Structure (SMILES): OC(Cn1cncn1)(Cn1cncn1)c1ccc(F)cc1F [FLU]
- MIC2 (50% inhibition) [1]: >64 µg/mL
- MIC2 (50% inhibition) ([1]; C. auris MMX 9862, Susceptible): 2 µg/mL
- MIC2 (50% inhibition) ([1]; C. auris MMX 9871, Susceptible): >64 µg/mL
- MIC2 ([2]; A. flavus ATCC 22546): >64 µg/mL
- MIC2 ([2]; A. flavus ATCC 204304): >64 µg/mL
- MIC2 ([2]; A. flavus MMX 7935): >64 µg/mL
- MIC2 ([2]; A. fumigatus ATCC 204305): >64 µg/mL
- MIC2 ([2]; A. fumigatus ATCC MYA-3626): >64 µg/mL
- MIC2 ([2]; A. fumigatus MMX 5934): >64 µg/mL
- MIC2 ([2]; A. fumigatus MMX 5938): >64 µg/mL
- MIC2 ([2]; A. fumigatus MMX 5939): >64 µg/mL
- MIC2 ([2]; A. niger ATCC 29508): >64 µg/mL
- MIC2 ([2]; A. terreus MMX 8229): >64 µg/mL
- MIC2 (50% inhibition) [3, 6]: 8 µg/mL
- MIC2 (50% inhibition) [3, 7]: 8 µg/mL
- MIC2 (50% inhibition) [3, 8]: 1 µg/mL
- MIC2 (50% inhibition) [3, 9]: 2 µg/mL
- MIC2 (50% inhibition) [3, 10]: 4 µg/mL
- MIC2 (50% inhibition) [4, 11]: 0.25 µg/mL
- MIC2 (50% inhibition) [4, 12]: 0.12 µg/mL
- MIC2 (50% inhibition) [4, 13]: 1 µg/mL
- MIC2 (50% inhibition) [4, 14]: 0.5 µg/mL
- MIC2 (50% inhibition) [4, 15]: 4 µg/mL
- MIC2 (50% inhibition) [5]: 32 µg/mL
- MIC2 (50% inhibition) ([5]; C. krusei ATCC 6258, MICA-I): 16 µg/mL
- MIC2 (50% inhibition) [5, 16]: 16 µg/mL
- MIC2 (50% inhibition) [5, 17]: 32 µg/mL
- MIC2 (50% inhibition) [5, 18]: 32 µg/mL
- MIC2 (50% inhibition) [5, 19]: 16 µg/mL
- MIC2 (50% inhibition) [5, 20]: 16 µg/mL
- MIC2 (50% inhibition) [5, 21]: 32 µg/mL
- MIC2 (50% inhibition) [5, 22]: 32 µg/mL
- MIC2 (50% inhibition) [5, 23]: 64 µg/mL

Structure (SMILES): C[C@@H](c1ncncc1F)[C@](O)(Cn1cncn1)c1ccc(F)cc1F [VORI]
- MIC2 (50% inhibition) ([1]; C. auris MMX 9862, Susceptible): 0.03 µg/mL
- MIC2 (50% inhibition) ([1]; C. auris MMX 9863, FLU-R, VORI-R): >8 µg/mL
- MIC2 (50% inhibition) ([1]; C. auris MMX 9864, FLU-R, VORI-R): 2 µg/mL
- MIC2 (50% inhibition) ([1]; C. auris MMX 9865, FLU-R, VORI-R): 8 µg/mL
- MIC2 (50% inhibition) ([1]; C. auris MMX 9866, FLU-R, VORI-R): 8 µg/mL
- MIC2 (50% inhibition) ([1]; C. auris MMX 9867, FLU-R, VORI-R): 8 µg/mL
- MIC2 (50% inhibition) ([1]; C. auris MMX 9868, FLU-R, VORI-R): >8 µg/mL
- MIC2 (50% inhibition) ([1]; C. auris MMX 9869, FLU-R, VORI-R): 2 µg/mL
- MIC2 (50% inhibition) ([1]; C. auris MMX 9870, FLU-R, VORI-R): 4 µg/mL
- MIC2 (50% inhibition) ([1]; C. auris MMX 9871, Susceptible): 1 µg/mL
- MIC0 (complete inhibition) ([2]; A. flavus ATCC 22546): 1 µg/mL
- MIC0 (complete inhibition) ([2]; A. flavus ATCC 204304): 2 µg/mL
- MIC0 (complete inhibition) ([2]; A. flavus MMX 7935): 0.5 µg/mL
- MIC0 (complete inhibition) ([2]; A. fumigatus ATCC 204305): 0.5 µg/mL
- MIC0 (complete inhibition) ([2]; A. fumigatus ATCC MYA-3626): 0.5 µg/mL
- MIC0 (complete inhibition) ([2]; A. fumigatus MMX 5934): 0.25 µg/mL
- MIC0 (complete inhibition) ([2]; A. fumigatus MMX 5938): 0.25 µg/mL
- MIC0 (complete inhibition) ([2]; A. fumigatus MMX 5939): 2 µg/mL
- MIC0 (complete inhibition) ([2]; A. niger ATCC 29508): 0.5 µg/mL
- MIC0 (complete inhibition) ([2]; A. terreus MMX 8229): 0.25 µg/mL
- MIC2 (50% inhibition) [3, 6]: 0.12 µg/mL
- MIC2 (50% inhibition) [3, 7]: 0.12 µg/mL
- MIC2 (50% inhibition) [3, 8]: 0.03 µg/mL
- MIC2 (50% inhibition) ([3]; Candida glabrata MMX 7093, FLU-R): 2 µg/mL
- MIC2 (50% inhibition) ([3]; Candida glabrata MMX 7101, FLU-R): 2 µg/mL
- MIC2 (50% inhibition) ([3]; Candida glabrata MMX 7103, CASP-R, MICA-R): 0.12 µg/mL
- MIC2 (50% inhibition) [3, 9]: 0.06 µg/mL
- MIC2 (50% inhibition) ([3]; Candida glabrata MMX 7285, CASP-R, MICA-R): 1 µg/mL
- MIC2 (50% inhibition) ([3]; Candida glabrata MMX 7307, CASP-R, MICA-R, FLU-R): 4 µg/mL
- MIC2 (50% inhibition) [3, 10]: 0.06 µg/mL
- MIC2 (50% inhibition) [4, 11]: ≤0.008 µg/mL
- MIC2 (50% inhibition) ([4]; Candida albicans ATCC 204276, MICA-R): ≤0.008 µg/mL
- MIC2 (50% inhibition) ([4]; Candida albicans ATCC MYA-2732, FLU-R, VORI-I): 0.5 µg/mL
- MIC2 (50% inhibition) [4, 12]: ≤0.008 µg/mL
- MIC2 (50% inhibition) ([4]; Candida albicans MMX 7067, FLU-R, VORI-R): >8 µg/mL
- MIC2 (50% inhibition) [4, 13]: ≤0.008 µg/mL
- MIC2 (50% inhibition) ([4]; Candida albicans MMX 7424, CASP-R, MICA-R): ≤0.008 µg/mL
- MIC2 (50% inhibition) [4, 14]: ≤0.008 µg/mL
- MIC2 (50% inhibition) [4, 15]: 0.12 µg/mL
- MIC2 (50% inhibition) ([4]; Candida albicans MMX 7445, FLU-R, VORI-R): >8 µg/mL
- MIC2 (50% inhibition) ([5]; C. krusei ATCC 6258, MICA-I): 0.12 µg/mL
- MIC2 (50% inhibition) [5, 16]: 0.06 µg/mL
- MIC2 (50% inhibition) [5, 17]: 0.5 µg/mL
- MIC2 (50% inhibition) [5, 18]: 0.25 µg/mL
- MIC2 (50% inhibition) [5, 19]: 0.12 µg/mL
- MIC2 (50% inhibition) [5, 20]: 0.12 µg/mL
- MIC2 (50% inhibition) ([5]; C. krusei MMX 7153, MICA-R): 0.25 µg/mL
- MIC2 (50% inhibition) [5, 21]: 0.25 µg/mL
- MIC2 (50% inhibition) [5, 22]: 0.25 µg/mL
- MIC2 (50% inhibition) [5, 23]: 1 µg/mL
